In US20070049564A1 (Wyeth, priority 2005, published 2007):
In brackets after ≈: the same amount, converted by molar mass. Read-outs that look alike come from different tables or passages of the source.

What was measured:
Salmonella spp. GC 235 = assay: MIC, broth microdilution
Description: Antimicrobial susceptibility testing. The in vitro activities of the antibiotics are determined by the broth microdilution method as recommended by the National Committee for Clinical Laboratory Standards (NCCLS) (1). Mueller-Hinton II broth (MHBII)(BBL Cockeysville, Md.) is the medium employed in the testing procedures. Microtiter plates containing serial dilutions of each antimicrobial agent are inoculated with each organism to yield the appropriate density (10^5 CFU/ml) in a 100 μl final volume. The plates are incubated for 18-22 hours at 35° C. in ambient air.
Representative compounds were first incubated in mouse serum for an hour prior to the in vitro testing against a panel of selected gram-positive and gram-negative bacteria strains. All compounds were also pre-incubated in water for an hour prior to testing as control.

Salmonella spp. GC 566 = assay: MIC, broth microdilution; details: Salmonella
S. cholerasius GC 1355 = assay: MIC, broth microdilution
E. coli #311 = assay: In vivo activity (oral, iv; ED50) against E. coli in mice; details: Escherichia coli
From the text: . […] Smith and E. Coli #311 in mammals.
Results of the tests (MIC, oral and IV) are list in Table 7.

[1] = Salmonella, SPP.GC235, Salmonella spp. GC 235, Mouse Serum pre-incubation
[2] = Salmonella, SPP.GC235, Salmonella spp. GC 235, Water pre-incubation
[3] = SPP.GC566, Salmonella spp. GC 566, Mouse Serum pre-incubation
[4] = SPP.GC566, Salmonella spp. GC 566, Water pre-incubation
[5] = S. cholerasius GC 1355, Mouse Serum pre-incubation
[6] = S. cholerasius GC 1355, Water pre-incubation
[7] = Salmonella, SPP.GC235, pre-incubation in mouse serum
[8] = Salmonella, SPP.GC235, pre-incubation in water
[9] = SPP.GC566, pre-incubation in mouse serum
[10] = SPP.GC566, pre-incubation in water
[11] = single intravenous dose (SIV), read-out: ED50 E. coli #311 SIV
[12] = single oral dose (SOD), read-out: ED50 E. coli #311 SOD

SMILES | MIC (Salmonella spp. GC 235; [1]) [µg/mL] | MIC (Salmonella spp. GC 235; [2]) [µg/mL] | MIC (Salmonella spp. GC 566; [3]) [µg/mL] | MIC (Salmonella spp. GC 566; [4]) [µg/mL] | MIC (S. cholerasius GC 1355; [5]) [µg/mL] | MIC (S. cholerasius GC 1355; [6]) [µg/mL] | ED50 (E. coli #311; [11]) [mg/kg] | ED50 (E. coli #311; [12]) [mg/kg] | further results
CCCN(CC(=O)Nc1cc(N(C)C)c2c(c1O)C(=O)C1=C(O)[C@]3(O)C(=O)C(C(N)=O)=C(O)[C@@H](N(C)C)[C@@H]3C[C@@H]1C2)C(=O)OCOC(=O)c1ccc(OC)cc1 [Example 6, ({[(2-{[(5aR,6aS,7S,10aS)-9-(aminocarbonyl)-4,7-bis(dimethylamino)-1,8,10a,11-tetrahydroxy-10,12-dioxo-5,5a,6,6a,7,10,10a,12-octahydrotetracen-2-yl]amino}-2-oxoethyl)(propyl)amino]carbonyl}oxy)methyl 4-methoxybenzoate] | 2 (≈ 2.56 µM) | 16 (≈ 20.5 µM) | 4 (≈ 5.13 µM) | 64 (≈ 82.1 µM) | 16 (≈ 20.5 µM) | > 64 |  |  | 
CCCN(CC(=O)Nc1cc(N(C)C)c2c(c1O)C(=O)C1=C(O)[C@]3(O)C(=O)C(C(N)=O)=C(O)[C@@H](N(C)C)[C@@H]3C[C@@H]1C2)C(=O)OCC(C)C [Example 16, isobutyl 2-{[(5aR,6aS,7S,10aS)-9-(aminocarbonyl)-4,7-bis(dimethylamino)-1,8,10a,11-tetrahydroxy-10,12-dioxo-5,5a,6,6a,7,10,10a,12-octahydrotetracen-2-yl]amino}-2-oxoethyl(propyl)carbamate] | > 64 | > 64 | > 64 | > 64 | > 64 | > 64 |  |  | 
CCCCN(CC(=O)Nc1cc(N(C)C)c2c(c1O)C(=O)C1=C(O)[C@]3(O)C(=O)C(C(N)=O)=C(O)[C@@H](N(C)C)C3CC1C2)C(=O)OCc1oc(=O)oc1C (stereo partly drawn) [Example 109, (5-methyl-2-oxo-1,3-dioxol-4-yl)methyl 2-{[(7S,10aS)-9-(aminocarbonyl)-4,7-bis(dimethylamino)-1,8,10a,11-tetrahydroxy-10,12-dioxo-5,5a,6,6a,7,10,10a,12-octahydrotetracen-2-yl]amino}-2-oxoethyl(butyl)carbamate] |  |  |  |  |  |  |  |  | MIC (Salmonella spp. GC 235; [7]): 1 µg/mL (≈ 1.35 µM); MIC (Salmonella spp. GC 235; [8]): 2 µg/mL (≈ 2.7 µM); MIC (Salmonella spp. GC 235; pre-incubation in water): 4 UG/ML; MIC (Salmonella spp. GC 566; [9]): 2 µg/mL (≈ 2.7 µM); MIC (Salmonella spp. GC 566; [10]): 4 µg/mL (≈ 5.39 µM); MIC (S. cholerasius GC 1355; pre-incubation in mouse serum): 8 µg/mL (≈ 10.8 µM); MIC (S. cholerasius GC 1355; pre-incubation in water): 32 µg/mL (≈ 43.1 µM)
COC(=O)N(CC(=O)Nc1cc(N(C)C)c2c(c1O)C(=O)C1=C(O)[C@]3(O)C(=O)C(C(N)=O)=C(O)[C@@H](N(C)C)[C@@H]3C[C@@H]1C2)C(C)(C)C [Example 60, methyl 2-{[(5aR,6aS,7S,10aS)-9-(aminocarbonyl)-4,7-bis(dimethylamino)-1,8,10a,11-tetrahydroxy-10,12-dioxo-5,5a,6,6a,7,10,10a,12-octahydrotetracen-2-yl]amino}-2-oxoethyl(tert-butyl)carbamate] |  |  |  |  |  |  | > 8 | > 32 | 
CCCCN(CC(=O)Nc1cc(N(C)C)c2c(c1O)C(=O)C1=C(O)[C@]3(O)C(=O)C(C(N)=O)=C(O)[C@@H](N(C)C)[C@@H]3C[C@@H]1C2)C(=O)OCOC(=O)C(C)(C)C [Example 13, ({[(2-{[(5aR,6aS,7S,10aS)-9-(aminocarbonyl)-4,7-bis(dimethylamino)-1,8,10a,11-tetrahydroxy-10,12-dioxo-5,5a,6,6a,7,10,10a,12-octahydrotetracen-2-yl]amino}-2-oxoethyl)(butyl)amino]carbonyl}oxy)methyl pivalate] | 2 (≈ 2.69 µM) | 16 (≈ 21.5 µM) | 8 (≈ 10.8 µM) | 64 (≈ 86 µM) | 16 (≈ 21.5 µM) | > 64 |  |  | 
CCCCN(CC(=O)Nc1cc(N(C)C)c2c(c1O)C(=O)C1=C(O)[C@]3(O)C(=O)C(C(N)=O)=C(O)[C@@H](N(C)C)[C@@H]3C[C@@H]1C2)C(=O)OCOC(=O)Cc1ccccc1 [Example 12, ({[(2-{[(5aR,6aS,7S,10aS)-9-(aminocarbonyl)-4,7-bis(dimethylamino)-1,8,10a,11-tetrahydroxy-10,12-dioxo-5,5a,6,6a,7,10,10a,12-octahydrotetracen-2-yl]amino}-2-oxoethyl)(butyl)amino]carbonyl}oxy)methyl phenylacetate] | 1 (≈ 1.29 µM) | 64 (≈ 82.3 µM) | 4 (≈ 5.14 µM) | > 64 | 16 (≈ 20.6 µM) | > 64 |  |  | 
CN(C)c1cc(NC(=O)CN(C(=O)OCOC(=O)C2CCCC2)C(C)(C)C)c(O)c2c1C[C@H]1C[C@H]3[C@H](N(C)C)C(O)=C(C(N)=O)C(=O)[C@@]3(O)C(O)=C1C2=O [Example 46, ({[(2-{[(5aR,6aS,7S,10aS)-9-(aminocarbonyl)-4,7-bis(dimethylamino)-1,8,10a,11-tetrahydroxy-10,12-dioxo-5,5a,6,6a,7,10,10a,12-octahydrotetracen-2-yl]amino}-2-oxoethyl)(tert-butyl)amino]carbonyl}oxy)methyl cyclopentanecarboxylate] |  |  |  |  |  |  | 2.16 | 29.2 | 
CCCN(CC(=O)Nc1cc(N(C)C)c2c(c1O)C(=O)C1=C(O)[C@]3(O)C(=O)C(C(N)=O)=C(O)C(N(C)C)C3CC1C2)C(=O)OCc1oc(=O)oc1-c1ccccc1 (stereo in doubt) [Example 110, (2-oxo-5-phenyl-1,3-dioxol-4-yl)methyl 2-{[(7R,10aS)-9-(aminocarbonyl)-4,7-bis(dimethylamino)-1,8,10a,11-tetrahydroxy-10,12-dioxo-5,5a,6,6a,7,10,10a,12-octahydrotetracen-2-yl]amino}-2-oxoethyl(propyl)carbamate] |  |  |  |  |  |  |  |  | MIC (Salmonella spp. GC 235; [7]): 4 µg/mL (≈ 5.06 µM); MIC (Salmonella spp. GC 235; [8]): 8 µg/mL (≈ 10.1 µM); MIC (Salmonella spp. GC 566; [9]): 16 µg/mL (≈ 20.3 µM); MIC (Salmonella spp. GC 566; [10]): 32 µg/mL (≈ 40.5 µM); MIC (S. cholerasius GC 1355; pre-incubation in mouse serum): > 64 µg/mL; MIC (S. cholerasius GC 1355; pre-incubation in water): > 64 µg/mL
CCCN(CC(=O)Nc1cc(N(C)C)c2c(c1O)C(=O)C1=C(O)[C@]3(O)C(=O)C(C(N)=O)=C(O)[C@@H](N(C)C)[C@@H]3C[C@@H]1C2)C(=O)OCc1ccccc1 [Example 14, benzyl 2-{[(5aR,6aS,7S,10aS)-9-(aminocarbonyl)-4,7-bis(dimethylamino)-1,8,10a,11-tetrahydroxy-10,12-dioxo-5,5a,6,6a,7,10,10a,12-octahydrotetracen-2-yl]amino}-2-oxoethyl(propyl)carbamate] | > 64 | > 64 | > 64 | > 64 | > 64 | > 64 |  |  | 
CCCCN(CC(=O)Nc1cc(N(C)C)c2c(c1O)C(=O)C1=C(O)[C@]3(O)C(=O)C(C(N)=O)=C(O)[C@@H](N(C)C)C3CC1C2)C(=O)OCOC(=O)c1ccc(OC)cc1 (stereo partly drawn) [Example 2, ({[(2-{[(7S,10aS)-9-(aminocarbonyl)-4,7-bis(dimethylamino)-1,8,10a,11-tetrahydroxy-10,12-dioxo-5,5a,6,6a,7,10,10a,12-octahydrotetracen-2-yl]amino}-2-oxoethyl)(butyl)amino]carbonyl}oxy)methyl 4-methoxybenzoate] | 8 (≈ 10.1 µM) | > 64 | 8 (≈ 10.1 µM) | > 64 | > 64 | > 64 |  |  | 
CCCN(CC(=O)Nc1cc(N(C)C)c2c(c1O)C(=O)C1=C(O)[C@]3(O)C(=O)C(C(N)=O)=C(O)[C@@H](N(C)C)[C@@H]3C[C@@H]1C2)C(=O)OCOC(=O)Cc1ccccc1 [Example 11, ({[(2-{[(5aR,6aS,7S,10aS)-9-(aminocarbonyl)-4,7-bis(dimethylamino)-1,8,10a,11′-tetrahydroxy-10,12-dioxo-5,5a,6,6a,7,10,10a,12-octahydrotetracen-2-yl]amino}-2-oxoethyl)(propyl)amino]carbonyl}oxy)methyl phenylacetate] | 0.5 (≈ 0.655 µM) | 64 (≈ 83.8 µM) | 2 (≈ 2.62 µM) | > 64 | 32 (≈ 41.9 µM) | > 64 |  |  | 
CC(C)COC(=O)N(CC(=O)Nc1cc(N(C)C)c2c(c1O)C(=O)C1=C(O)[C@]3(O)C(=O)C(C(N)=O)=C(O)[C@@H](N(C)C)[C@@H]3C[C@@H]1C2)C(C)(C)C [Example 59, isobutyl 2-{[(5aR,6aS,7S,10aS)-9-(aminocarbonyl)-4,7-bis(dimethylamino)-1,8,10a,11-tetrahydroxy-10,12-dioxo-5,5a,6,6a,7,10,10a,12-octahydrotetracen-2-yl]amino}-2-oxoethyl(tert-butyl)carbamate] |  |  |  |  |  |  | > 8 | > 32 | 
CCCCOC(=O)N(CC(=O)Nc1cc(N(C)C)c2c(c1O)C(=O)C1=C(O)[C@]3(O)C(=O)C(C(N)=O)=C(O)[C@@H](N(C)C)[C@@H]3C[C@@H]1C2)C(C)(C)C [Example 58, butyl 2-{[(5aR,6aS,7S,10aS)-9-(aminocarbonyl)-4,7-bis(dimethylamino)-1,8,10a,11-tetrahydroxy-10,12-dioxo-5,5a,6,6a,7,10,10a,12-octahydrotetracen-2-yl]amino}-2-oxoethyl(tert-butyl)carbamate] |  |  |  |  |  |  | > 8 | > 32 | 
CN(C)c1cc(NC(=O)CN(C(=O)OCOC(=O)c2ccc(C(C)(C)C)cc2)C(C)(C)C)c(O)c2c1C[C@H]1C[C@H]3[C@H](N(C)C)C(O)=C(C(N)=O)C(=O)[C@@]3(O)C(O)=C1C2=O [Example 43, ({[(2-{[(5aR,6aS,7S,10aS)-9-(aminocarbonyl)-4,7-bis(dimethylamino)-1,8,10a,11-tetrahydroxy-10,12-dioxo-5,5a,6,6a,7,10,10a,12-octahydrotetracen-2-yl]amino}-2-oxoethyl)(tert-butyl)amino]carbonyl}oxy)methyl 4-tert-butylbenzoate] |  |  |  |  |  |  | 3.6 | 60.4 | 
